Data set [1] in a line: Inhibition of Staphylococcus aureus topoisomerase 4 subunit ParC/ParE relaxation expressed in Escherichia coli BL21 (DE3) using supercoiled pBR322 DNA as substrate after 1 hr by agarose gel electrophoresis.
The test system of another data set is Staphylococcus aureus. Nature of the data set: Antibacterial activity against Staphylococcus aureus ATCC 29213 by broth microdilution method. In kind it is functional.
A further data set concerns the target hERG (KCNH2) (Homo sapiens, UniProt Q12809). Nature of the data set: Inhibition of human ERG expressed in CHO cells at 10 uM after 3 mins at -80 mV holding potential by Qpatch assay. In kind it is cell-based. To be noted: CHO cells expressing human ERG. On the technique in general: The patch-clamp technique gives a direct electrical read-out from membranes.

Data set [2] is described as follows: Octanol-phosphate buffer partition coefficient, logD of compound at pH 7.4 by LC/UV analysis. In kind it is physicochemical.
Data set [3] can be described thus: Dissociation constant, pKa of the compound by pH metric assay. In kind it is physicochemical.
The target in another data set is DNA gyrase (Staphylococcus aureus, UniProt P0A0K8+P20831).
Data set [4] can be described thus: Inhibition of Escherichia coli N-terminal His6-tagged DNA gyrase subunit GyrA/GyrB ATPase activity expressed in Escherichia coli BL21 (DE3) after 40 mins by spectrophotometric analysis.
Data set [5] in a line: Inhibition of Escherichia coli N-terminal His6-tagged DNA gyrase subunit GyrA/GyrB supercoiling activity expressed in Escherichia coli BL21 (DE3) using relaxed pBR322 DNA as substrate after 1 hr by agarose gel electrophoresis.
Data set [6] in a line: Inhibition of Escherichia coli DNA topoisomerase 4 subunit ParC/ParE relaxation expressed in Escherichia coli BL21 (DE3) using supercoiled pBR322 DNA as substrate after 1 hr by agarose gel electrophoresis.
Data set [7] deals with Escherichia coli. Kind of data set: Antibacterial activity against TolC deficient Escherichia coli by broth microdilution method. In kind it is functional. (In general: Broth dilution looks for growth in wells or tubes with falling amounts of substance.)
Data set [8] relates to Escherichia coli. Nature of the data set: Inhibition of Escherichia coli N-terminal His6-tagged DNA gyrase subunit GyrA/GyrB ATPase activity at 100 to 500 uM after 40 mins by spectrophotometric analysis.

≈ marks a conversion by molar mass, not a printed value. Calls of active or inactive are those of the source. No cut-off for these calls is given here.

Sequence of DNA gyrase (P0A0K8 whole entry): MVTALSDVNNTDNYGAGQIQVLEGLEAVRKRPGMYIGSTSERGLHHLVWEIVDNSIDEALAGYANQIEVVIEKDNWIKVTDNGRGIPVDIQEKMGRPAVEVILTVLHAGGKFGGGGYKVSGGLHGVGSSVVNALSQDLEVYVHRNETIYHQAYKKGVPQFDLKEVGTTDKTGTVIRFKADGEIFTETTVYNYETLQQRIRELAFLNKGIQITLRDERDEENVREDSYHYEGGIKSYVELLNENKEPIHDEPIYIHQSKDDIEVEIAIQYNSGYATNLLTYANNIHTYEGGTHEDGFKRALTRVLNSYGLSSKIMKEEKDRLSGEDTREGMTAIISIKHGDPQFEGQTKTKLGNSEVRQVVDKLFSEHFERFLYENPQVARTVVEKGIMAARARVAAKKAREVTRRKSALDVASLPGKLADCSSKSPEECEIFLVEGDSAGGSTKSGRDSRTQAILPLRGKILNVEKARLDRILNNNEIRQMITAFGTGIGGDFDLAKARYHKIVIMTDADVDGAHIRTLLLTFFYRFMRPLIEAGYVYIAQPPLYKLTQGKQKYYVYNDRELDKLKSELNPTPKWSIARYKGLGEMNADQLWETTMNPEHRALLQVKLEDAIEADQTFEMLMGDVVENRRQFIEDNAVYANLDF
Sequence of DNA gyrase (P20831 whole entry): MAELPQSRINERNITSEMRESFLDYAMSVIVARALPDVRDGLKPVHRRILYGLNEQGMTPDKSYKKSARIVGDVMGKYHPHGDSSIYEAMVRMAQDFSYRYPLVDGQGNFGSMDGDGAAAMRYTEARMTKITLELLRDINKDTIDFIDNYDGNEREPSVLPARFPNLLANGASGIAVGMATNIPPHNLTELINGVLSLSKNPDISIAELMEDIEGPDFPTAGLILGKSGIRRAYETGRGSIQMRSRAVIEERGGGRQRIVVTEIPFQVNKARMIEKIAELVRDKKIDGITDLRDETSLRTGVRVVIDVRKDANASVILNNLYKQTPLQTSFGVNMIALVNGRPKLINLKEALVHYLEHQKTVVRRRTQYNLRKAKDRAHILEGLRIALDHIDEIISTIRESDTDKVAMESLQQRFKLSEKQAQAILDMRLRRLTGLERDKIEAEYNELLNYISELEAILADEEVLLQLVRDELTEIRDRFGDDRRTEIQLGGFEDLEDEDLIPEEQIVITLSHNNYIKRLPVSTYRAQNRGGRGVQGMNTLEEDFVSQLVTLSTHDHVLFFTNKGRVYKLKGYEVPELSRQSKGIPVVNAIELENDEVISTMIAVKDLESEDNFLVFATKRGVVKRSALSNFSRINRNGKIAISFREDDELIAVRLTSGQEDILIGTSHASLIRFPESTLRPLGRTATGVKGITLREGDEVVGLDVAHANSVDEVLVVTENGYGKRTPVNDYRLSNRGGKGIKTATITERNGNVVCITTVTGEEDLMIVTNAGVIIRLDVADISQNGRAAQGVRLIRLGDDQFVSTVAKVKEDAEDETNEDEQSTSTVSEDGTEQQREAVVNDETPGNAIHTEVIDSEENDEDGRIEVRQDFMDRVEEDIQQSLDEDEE
Sequence of hERG (KCNH2) (Q12809 whole entry): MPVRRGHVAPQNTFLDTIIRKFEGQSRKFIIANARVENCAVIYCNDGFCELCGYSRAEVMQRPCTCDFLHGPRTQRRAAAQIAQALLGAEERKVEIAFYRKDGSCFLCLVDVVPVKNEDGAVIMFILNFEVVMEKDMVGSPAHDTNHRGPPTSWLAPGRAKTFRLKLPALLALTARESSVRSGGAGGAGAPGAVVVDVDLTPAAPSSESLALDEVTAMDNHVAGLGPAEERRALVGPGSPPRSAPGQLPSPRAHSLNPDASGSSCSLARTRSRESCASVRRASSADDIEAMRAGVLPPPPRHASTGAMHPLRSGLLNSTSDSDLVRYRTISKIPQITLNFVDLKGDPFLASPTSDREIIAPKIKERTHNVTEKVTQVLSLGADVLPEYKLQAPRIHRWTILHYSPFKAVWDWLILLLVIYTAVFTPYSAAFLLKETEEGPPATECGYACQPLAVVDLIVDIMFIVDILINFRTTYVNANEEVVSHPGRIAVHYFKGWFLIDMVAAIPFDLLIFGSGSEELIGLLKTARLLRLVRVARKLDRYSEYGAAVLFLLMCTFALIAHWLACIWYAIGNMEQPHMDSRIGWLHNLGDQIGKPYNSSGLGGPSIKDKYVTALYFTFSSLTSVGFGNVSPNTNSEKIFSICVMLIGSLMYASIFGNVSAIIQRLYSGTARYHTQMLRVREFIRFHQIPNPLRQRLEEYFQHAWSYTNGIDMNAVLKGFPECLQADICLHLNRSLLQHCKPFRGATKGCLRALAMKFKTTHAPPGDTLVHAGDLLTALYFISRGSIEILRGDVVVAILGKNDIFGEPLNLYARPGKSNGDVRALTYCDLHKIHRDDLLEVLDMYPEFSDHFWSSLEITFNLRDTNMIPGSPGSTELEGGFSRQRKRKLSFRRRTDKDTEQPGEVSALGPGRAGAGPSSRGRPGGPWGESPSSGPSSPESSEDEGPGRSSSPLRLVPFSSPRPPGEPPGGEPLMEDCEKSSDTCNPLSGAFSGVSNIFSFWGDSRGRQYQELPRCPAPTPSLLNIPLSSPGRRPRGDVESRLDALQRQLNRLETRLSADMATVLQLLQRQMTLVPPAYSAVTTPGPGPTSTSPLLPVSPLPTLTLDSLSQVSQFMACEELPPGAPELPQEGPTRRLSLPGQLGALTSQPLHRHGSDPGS
Description for DNA gyrase: Inhibition of Staphylococcus aureus N-terminal His6-tagged DNA gyrase subunit GyrA/GyrB supercoiling activity expressed in Escherichia coli BL21 (DE3) using relaxed pBR322 DNA as substrate after 1 hr by agarose gel electrophoresis

As for `CCNC(=O)Nc1cc2c(-c3ccncc3)ccc(CNC(=O)OCCN3CCOCC3)c2cn1.Cl`, the IC50 in data set [1] is 500 nM; against DNA gyrase it was less than 4 nM. The compound further showed an MIC in the data set with Staphylococcus aureus of 4 µg/mL. The inhibition at 0.05 h, 10 µM at hERG (KCNH2) worked out at 0%. The compound also had a logD in data set [2] of 2.3. This compound came in with a pKa in [3] of 6.3.

Turning to `CCNC(=O)Nc1cc2c(-c3cccnc3)cccc2cn1`, the IC50 was 1000 nM in [4]; 32000 nM in data set [5]; 128000 nM in [6]; more than 256000 nM in [1]; 8000 nM on DNA gyrase. The MIC against Escherichia coli [7] and against Staphylococcus aureus was more than 32 µg/mL each time.

In the case of `CCNC(=O)Nc1cc2c(-c3ccnc(C)c3)ccc(CNC(=O)OCCO)c2cn1`, the IC50 was 8000 nM in data set [1] and 30 nM against DNA gyrase. Besides, in the data set on Staphylococcus aureus, inhibition of growth (MIC) required 1 µg/mL (≈ 2.36 µM). The same compound registered an inhibition at 0.05 h, 10 µM against hERG (KCNH2) of 19%. In [2], this compound came in with a logD of 2.5.

As to `CCNC(=O)Nc1nc2ccncc2s1`, the inhibition entry in the data set on Escherichia coli [8] is “Active”. For the same compound, inhibition in [4] was half-maximal at 20000 nM (IC50).

Take `CCNC(=O)Nc1cc2c(-c3ccnc(C)c3)ccc(C)c2cn1`: the IC50 in [4] is less than 200 nM; in data set [5] it was 125 nM; in data set [6], 8000 nM; in [1], 8000 nM; against DNA gyrase, 30 nM. Further, the MIC against Escherichia coli [7] worked out at 4 µg/mL (≈ 12.5 µM); in the data set on Staphylococcus aureus it was 0.5 µg/mL (≈ 1.56 µM).

In the case of `CCNC(=O)Nc1cc2c(-c3ccncc3)ccc(CNC(=O)OC(C)C)c2cn1`, the IC50 in data set [1] was 500 nM; against DNA gyrase, less than 4 nM. Moreover, the lowest concentration to inhibit growth against Staphylococcus aureus (MIC) was 0.25 µg/mL (≈ 0.614 µM). The compound also returned an inhibition at 0.05 h, 10 µM against hERG (KCNH2) of 63%. For the same compound, in data set [2], the logD came out at 3.7.

For the compound `CCNC(=O)Nc1nc2c(s1)CCCC2`, in the data set on Escherichia coli [8], the inhibition entry is “Active”. In data set [4], inhibition was half-maximal at 200000 nM (IC50).

`CCNC(=O)Nc1cc2c(-c3ccncc3)ccc(Nc3cccnc3)c2cn1`: the IC50 in data set [5] amounted to 30 nM; in data set [6], 500 nM; in data set [1], 125 nM; against DNA gyrase it was 8 nM. The compound also displayed an MIC in the data set on Staphylococcus aureus of 0.06 µg/mL (≈ 0.156 µM).

For `CCNC(=O)Nc1cc2c(-c3ccncc3)ccc(CNC(=O)OC)c2cn1`, the IC50 is 500 nM in [1] and less than 4 nM on DNA gyrase. The MIC in the data set with Staphylococcus aureus came out at 0.125 µg/mL (≈ 0.329 µM). Also, the inhibition at 0.05 h, 10 µM against hERG (KCNH2) is 41%. For the same compound, in [2], the logD worked out at 2.7.

For `CCNC(=O)Nc1cc2c(-c3ccnc(C)c3)ccc(Cc3cccnc3)c2cn1.Cl`, the IC50 in data set [5] turned out to be 125 nM; in data set [6], 8000 nM; in [1] it was 2000 nM; on DNA gyrase, 30 nM. Also, the MIC against Staphylococcus aureus came out at 0.5 µg/mL.

For `CCNC(=O)Nc1cc2c(-c3ccnc(C)c3)ccc(CNC(=O)C3CC3)c2cn1`, the IC50 in data set [1] is 2000 nM; against DNA gyrase it was less than 4 nM. In the data set with Staphylococcus aureus, this compound had a minimum inhibitory concentration (MIC) of 0.06 µg/mL (≈ 0.149 µM). The same compound returned an inhibition at 0.05 h, 10 µM against hERG (KCNH2) of 75%. In data set [2], this compound had a logD of 3.4.

For `CCNC(=O)Nc1cc2c(-c3ccncc3)ccc(Oc3cccnc3)c2cn1`, the IC50 in data set [5] came out at 125 nM; in [6], 8000 nM; in data set [1], 2000 nM; against DNA gyrase it was 30 nM. Moreover, 0.25 µg/mL (≈ 0.649 µM) was the least that counted as inhibitory in the data set with Staphylococcus aureus (MIC).

For the compound `CCNC(=O)Nc1cc2c(-c3ccncn3)ccc(C)c2cn1`, the IC50 in data set [4] is less than 200 nM; in data set [6], 32000 nM; in data set [1] it was 32000 nM; against DNA gyrase, 500 nM. Moreover, the MIC against Escherichia coli [7] and with Staphylococcus aureus was 4 µg/mL (≈ 13 µM) in each case.

With `CCNC(=O)Nc1cc2c(-c3ccncc3)ccc(CNC(=O)OCCO)c2cn1`, the values for the IC50 (in data set [1]; on DNA gyrase) were 500 nM and less than 4 nM, respectively. In the data set with Staphylococcus aureus, the minimum inhibitory concentration (MIC) came to 2 µg/mL (≈ 4.88 µM). The same compound registered an inhibition at 0.05 h, 10 µM against hERG (KCNH2) of 0%. The logD in data set [2] was 2.

With `CCNC(=O)Nc1ccccn1`, the inhibition entry in the data set with Escherichia coli [8] is “Active”. In addition, the IC50 in data set [4] was more than 200000 nM.

On to `CCNC(=O)Nc1cc2c(-c3ccnc(C)c3)ccc(CNC(=O)CCOC)c2cn1`, for which the IC50 in data set [1] came out at 2000 nM; against DNA gyrase, 8 nM. The same compound showed a minimal inhibitory concentration (MIC) in the data set on Staphylococcus aureus of 0.5 µg/mL (≈ 1.19 µM). On hERG (KCNH2), this compound gave an inhibition at 0.05 h, 10 µM of 0%. In data set [2], the logD was 2.6.

`CCNC(=O)Nc1nc2c(s1)CNCC2`: the inhibition entry in the data set on Escherichia coli [8] was “Active”. Half-maximal inhibition in data set [4] (IC50) was put at 200000 nM.

Take `CCNC(=O)Nc1nc2c(s1)NC(=O)CC2`: the inhibition entry in the data set with Escherichia coli [8] was “Active”. Further, half-maximal inhibition in data set [4] (IC50) was put at 20000 nM.

Regarding `CCNC(=O)Nc1nccc2ccccc12`, the inhibition entry with Escherichia coli [8] is “Active”. In [4], this compound returned an IC50 of more than 200000 nM.

As for `CCNC(=O)Nc1cnc2ccccc2n1`, in the data set on Escherichia coli [8], the inhibition entry was “Active”. Half-maximal inhibition in data set [4] (IC50) required 20000 nM.

With `CCNC(=O)Nc1cc2c(-c3cccnc3)ccc(C)c2cn1`, the IC50 is less than 200 nM in data set [4]; 2000 nM in data set [5]; more than 256000 nM in [6]; more than 256000 nM in data set [1]; 125 nM against DNA gyrase. The MIC in the data set with Escherichia coli [7] was more than 32 µg/mL; against Staphylococcus aureus it was 2 µg/mL (≈ 6.53 µM).

`CCNC(=O)Nc1nc2ccccc2s1`: in the data set on Escherichia coli [8], the inhibition entry is “Active”. Further, the IC50 in data set [4] was found to be 20000 nM.

Consider `CCNC(=O)Nc1cc2c(-c3ccnc(C)c3)ccc(Nc3cccc(C(=O)O)c3)c2cn1`, for which the IC50 in [6] worked out at 500 nM; in [1], 125 nM; at DNA gyrase it was 8 nM. Moreover, the minimal inhibitory concentration (MIC) with Staphylococcus aureus came out at 0.5 µg/mL (≈ 1.13 µM).

As to `CCNC(=O)Nc1ncc2ccccc2n1`, in the data set on Escherichia coli [8], the inhibition result is “Active”. In data set [4], the IC50 is more than 200000 nM.

Turning to `CCNC(=O)Nc1cc2ccccc2cn1`, the inhibition entry with Escherichia coli [8] is “Active”. The half-inhibitory concentration (IC50) in [4] was 20000 nM; in data set [6], more than 256000 nM; in data set [1] it was more than 256000 nM; on DNA gyrase it was 128000 nM. The MIC against Escherichia coli [7] and in the data set with Staphylococcus aureus was more than 32 µg/mL each time.

Regarding `CCNC(=O)Nc1cc2c(-c3ccncc3)ccc(-c3cccnc3)c2cn1`, the IC50 in data set [5] was 2000 nM; in [6] it was more than 256000 nM; in [1] it was more than 256000 nM; on DNA gyrase it was 125 nM. In the data set with Staphylococcus aureus, this compound had an MIC of more than 16 µg/mL.

Turning to `CCNC(=O)Nc1nccs1`, the inhibition entry in the data set on Escherichia coli [8] is “Active”. Besides, the IC50 in [4] was more than 200000 nM.

`CCNC(=O)Nc1cc2cccc(C)c2cn1`: the IC50 in data set [4] was 1000 nM; in data set [5], 32000 nM; in data set [6] it was 128000 nM; in data set [1], more than 256000 nM; on DNA gyrase, 8000 nM. The MIC against Escherichia coli [7] is more than 32 µg/mL; against Staphylococcus aureus, 32 µg/mL (≈ 140 µM).

Consider `CCNC(=O)Nc1ccc2ccccc2n1`, for which, in the data set with Escherichia coli [8], the inhibition result was “Active”. In data set [4], this compound had an IC50 of 70000 nM.

With `CCNC(=O)Nc1cc2c(-c3ccc(C#N)cc3)ccc(C)c2cn1`, the IC50 is less than 200 nM in data set [4]; 125 nM in data set [5]; more than 256000 nM in data set [6]; more than 256000 nM in data set [1]; 30 nM against DNA gyrase. Further, the MIC against Escherichia coli [7] and in the data set on Staphylococcus aureus was more than 32 µg/mL each time.

Consider `CCNC(=O)Nc1cc2c(-c3cnn(C)c3)ccc(C)c2cn1.Cl`, for which the IC50 is less than 200 nM in data set [4]; 8000 nM in data set [5]; 32000 nM in data set [6]; more than 256000 nM in data set [1]; 125 nM at DNA gyrase. Besides, the figures for the MIC in the data set on Escherichia coli [7] and in the data set with Staphylococcus aureus were 16 µg/mL and 4 µg/mL, respectively.

`CCNC(=O)Nc1cc2c(-c3cncnc3)ccc(C)c2cn1`: the IC50 in [4] was less than 200 nM; in [5], 2000 nM; in data set [6] it was more than 256000 nM; in [1], more than 256000 nM; against DNA gyrase it was 500 nM. In addition, the MIC with Escherichia coli [7] and in the data set with Staphylococcus aureus was more than 32 µg/mL in each case.

By IC50 is commonly meant the concentration at which inhibition is half-maximal. Low values mean greater potency, high ones weaker potency. One may read the MIC as the lowest concentration found to suppress growth. A higher MIC goes with weaker potency. For orientation: inhibition means the percentage by which the read-out fell short of the control. In general, logD refers to lipophilicity at a set pH, counting ionised and neutral species. Read a high logD as higher lipophilicity. The pKa is the negative logarithm of the acid dissociation constant. Read a low pKa as a stronger acid or weaker base.

These data come from ChEMBL document CHEMBL4049438, “Discovery and Optimization of Isoquinoline Ethyl Ureas as Antibacterial Agents” (J Med Chem, 2017).
